According to PMC8465942, “Cyano- and Ketone-Containing Selenoesters as Multi-Target Compounds against Resistant Cancers” (Cancers, 2021):
“Also recorded” adds a separate entry of the source. Marks after values point to notes of the source that are not given here.

What was measured:
HaCaT cell line = assay: Toxicity on HaCaT cells (IC10 used as dose); format: cell-based; settings: Homo sapiens, concentration inhibiting 10% of the population, highest non-toxic concentration, read-out: Dose IC10
Description: The activity of selenoesters was tested on several cancer cell lines, including HepG2 (hepatocellular carcinoma, CCL-23TM, ATCC); HeLa (cervical adenocarcinoma, CCL-2TM, ATCC); B16 (skin melanoma, CCL-6322TM, ATCC); and a non-cancerous cell line, HDF (human dermal fibroblasts, Sigma-Aldrich). HepG2, HeLa, B16, and HDF cell lines were cultivated in EMEM medium supplemented with 10% FBS, 2 mM L-glutamine, and 1% penicillin-streptomycin mixture. The HaCaT cell line was cultivated in DMEM medium supplemented with 10% FBS and 1% penicillin-streptomycin mixture. All of the cells were cultivated in a CO2 incubator (5% CO2, 37 °C). Twice per week, the cell lines were passaged according to a standardized protocol with a trypsin-EDTA solution. […]
Wound healing activity of selenoesters was evaluated as the ability of the cells to migrate and close the gap created on the monolayer of human keratinocytes (HaCaT cell line). The tested substances were applied in the highest possible non-toxic concentration (IC10, concentration inhibiting 10% of the population). In general, ketone-selenoesters were more toxic (except K4 and K1) than cyano-selenoesters (except N4); therefore, they were applied at lower doses (0.17–0.30 µM) when compared to cyanoselenoesters (0.36–0.64 µM). Compounds K1, K4, and N4 were applied at a concentration of 0.30, 0.46, and 0.20 µM, respectively. As could be seen in Table 8, all ketone-selenoesters stimulated wound healing more effectively in comparison to both untreated control (p < 0.0000005) and allantoin (p < 0.00005). […] Only samples N1, N2, N4, and N7 closed effectively the damaged wound in 24 h, with the gap closure around 70%.

B16 (skin melanoma) = assay: Cytotoxicity on B16 cells; format: cell-based, murine; settings: Mus musculus
Description: (§1) The activity of selenoesters was tested on several cancer cell lines, including HepG2 (hepatocellular carcinoma, CCL-23TM, ATCC); HeLa (cervical adenocarcinoma, CCL-2TM, ATCC); B16 (skin melanoma, CCL-6322TM, ATCC); and a non-cancerous cell line, HDF (human dermal fibroblasts, Sigma-Aldrich). HepG2, HeLa, B16, and HDF cell lines were cultivated in EMEM medium supplemented with 10% FBS, 2 mM L-glutamine, and 1% penicillin-streptomycin mixture. The HaCaT cell line was cultivated in DMEM medium supplemented with 10% FBS and 1% penicillin-streptomycin mixture. All of the cells were cultivated in a CO2 incubator (5% CO2, 37 °C). Twice per week, the cell lines were passaged according to a standardized protocol with a trypsin-EDTA solution.
(§2) The selectivity indexes (SI) were calculated as the ratio of the IC50 value in the non-tumour cells and the IC50 in the cancer cell lines. The compound’s activity towards cancer cells is considered as strongly selective if the selectivity index (SI) value is higher than 6, moderately selective if 3 < SI < 6, slightly selective if 1 < SI < 3, and non-selective if SI is lower than 1 [16].

[1] = tested on: HeLa (cervical adenocarcinoma); assay: Cytotoxicity on HeLa cells; format: cell-based; settings: Homo sapiens
Description: as §1, §2

[2] = tested on: HepG2 (hepatocellular carcinoma); assay: Cytotoxicity on HepG2 cells; format: cell-based, human; settings: ratio IC50 non-tumour cells / IC50 cancer cells
[3] = tested on: HepG2 (hepatocellular carcinoma); assay: Cytotoxicity on HepG2 cells; format: cell-based; settings: Homo sapiens
Description: as §1, §2

[4] = Cytotoxicity (MTT) on normal MRC-5 fibroblasts; format: cell-based; settings: human
Source text: (§3) Three cell lines have been used in this study: the doxorubicin-sensitive Colo 205 (CCL-222, ATCC, Manassas, VA, USA) human colonic adenocarcinoma cell line; the multidrug resistant Colo 320/MDR-LRP expressing P-gp (MDR1)-LRP (CCL-220.1, ATCC) human colonic adenocarcinoma cell line; and the MRC-5 human embryonal lung fibroblast cell line (CCL-171, ATCC). The colon adenocarcinoma cell lines were purchased from LGC Promochem (Teddington, UK), and the MRC-5 cell line was purchased from Sigma-Aldrich (Merck KGaA, Darmstadt, Germany). Their culture conditions are as follows: Colo 205 (CCL-222, ATCC) and Colo 320/MDR-LRP expressing P-gp (MDR1)-LRP (CCL-220.1, ATCC) human colon adenocarcinoma cell lines were cultured in RPMI 1640 medium, supplemented with 10% FBS, 2 mM L-glutamine, 1 mM Na-pyruvate, and […]. The cell lines were incubated at 37 °C, 5% CO2, and 95% air atmosphere. The semi-adherent human colon cancer cells were detached with a Trypsin-Versene (EDTA) solution for 5 min at 37 °C. MRC-5 human embryonal lung fibroblast cells were cultured in EMEM containing 4.5 g/L of glucose and supplemented with a non-essential amino acid mixture, a selection of vitamins, and 10% FBS. The cell lines were incubated at 37 °C, 5% CO2, and 95% air atmosphere.
(§4) The effects of increasing concentrations of the compounds on cell growth were tested in 96-well flat-bottomed microtiter plates. Moreover, 10^4 of human colonic adenocarcinoma cells in 100 μL of the medium (RPMI-1640) were added to each well, except for the medium control wells. The adherent human embryonic lung fibroblast cell line was seeded in the EMEM medium for 4 h before the assay. The two-fold serial dilutions of the compounds were made in a separate plate (0.19–100 μM), and then transferred to the plates containing the adherent corresponding cell line. Culture plates were incubated at 37 °C for 24 h. At the end of the incubation period, 20 μL of MTT (thiazolyl blue tetrazolium bromide) solution (from a 5 mg/mL stock solution) were added to each well. After incubation at 37 °C for 4 h, 100 μL of sodium dodecyl sulfate (SDS) solution (10% SDS in 0.01 M HCl) was added to each well, and the plates were further incubated at 37 °C overnight. Cell growth was determined by measuring the optical density (OD) at 540 nm (ref. 630 nm) with a Multiscan EX ELISA reader (Thermo Labsystems, Cheshire, WA, USA). Inhibition of cell growth was expressed as IC50 values, defined as the inhibitory dose that reduces the growth of the cells exposed to the tested compounds by 50%. IC50 values and the SD of triplicate experiments were calculated by using GraphPad Prism software version 5.00 for Windows, with a non-linear regression curve fit (GraphPad Software, San Diego, CA, USA; www.graphpad.com, accessed on 12 July 2021). Doxorubicin (from a 2 mg/mL stock solution, Teva Pharmaceuticals) was used as a positive control.

[5] = tested on: resistant Colo 320 colon adenocarcinoma cells expressing the ABCB1 transporter; assay: Checkerboard combination assay with doxorubicin; format: cell-based, human
Description: A checkerboard microplate method was applied to study the effect of drug interactions between the selenocompounds and the chemotherapeutic drug doxorubicin on resistant Colo 320 colon adenocarcinoma cells expressing the ABCB1 transporter. Results were expressed in terms of the combination index (CI) values at 50% growth inhibition (ED50), which were determined by using CompuSyn software to plot 4 or 5 data points for each ratio.
To perform the experiment, the dilutions of doxorubicin were made in a horizontal direction in 100 µL, and the dilutions of the Se-compounds were made vertically in the microtiter plate in a volume of 50 µL. The cells were re-suspended in the culture medium and distributed into each well in 50 µL portions containing 6000 cells. The plates were incubated for 72 h at 37 °C in a CO2 incubator. The cell growth rate was determined after MTT staining. At the end of the incubation period, 20 μL of MTT solution was added to each well. After incubation at 37 °C for 4 h, 100 μL of SDS was added to each well and the plates were further incubated at 37 °C overnight. The optical density (OD) was measured at 540/630 nm with the Multiscan EX ELISA reader.

[6] = tested on: Colo 320/MDR-LRP human colonic adenocarcinoma cell line; assay: Cytotoxicity (MTT) on resistant Colo 320 cells; format: cell-based; settings: for IC50: Homo sapiens, COLO 320, 24 h, MTT, read-out: Colo 320 (IC50 µM) Mean; for SI MRC-5/Colo 320: ratio IC50 non-tumour cells / IC50 cancer cells
Source text: as §3, §4, §2

[7] = tested on: Colo 205 human colonic adenocarcinoma cell line; assay: Cytotoxicity (MTT) on sensitive Colo 205 cells; format: cell-based; settings: for IC50: Homo sapiens, COLO 205, 24 h, MTT, read-out: Colo 205 (IC50 µM) Mean; for SI MRC-5/Colo 205: ratio IC50 non-tumour cells / IC50 cancer cells
Source text: as §3, §4, §2

[8] = tested on: HeLa (cervical adenocarcinoma); assay: Cytotoxicity on HeLa cells; format: cell-based, human; settings: ratio IC50 non-tumour cells / IC50 cancer cells
[9] = tested on: human keratinocyte (HaCaT); assay: Wound healing scratch assay; format: cell-based; settings: 50 µg/mL positive control
Description: Wound healing activity was realized using human keratinocyte (HaCaT, Thermo Fisher Scientific, Waltham, MA, USA). Wound healing was measured in vitro by scratch assay, as the migration rate of the cells to close the gap was created, as described by Ling et al., with slight modifications. Briefly, HaCaT cells at the concentration of 5×10^5 cells were seeded into 12-well plates and incubated at 37 °C and 5% CO2 until the cells formed a uniform layer. After layer formation, the cells were washed with PBS and then scratched with a sterile micropipette tip. […] The images of the scratch area were captured using an inverted microscope in 4× magnification at different time intervals (0 h, 24 h, 48 h) and evaluated using ImageJ software (National Institutes of Health, Bethesda, MD, USA). All of the experiments were performed in four replicates, and a minimum of five measurements were considered from each image captured. Dean–Dixon’s test was used to remove the outliners in the values measured, and further statistical significances between the groups were established by t-test (Excel, Microsoft Office, Redmond, WA, USA). The wound closure was calculated as the ratio of the gap size at the beginning minus the gap size at the evaluated time.

[10] = ratio 1.2:1, starting conc. 10 µM
[11] = ratio 4.8:1, starting conc. 10 µM
[12] = ratio 9.6:1, starting conc. 10 µM
[13] = ratio 19.2:1, starting conc. 10 µM
[14] = ratio 38.4:1, starting conc. 10 µM

Structure (SMILES)	IC10 (HaCaT cell line) [nM]	IC50 (B16 (skin melanoma)) [µM]	IC50 [1] [µM]	SI MRC-5/HepG2 [2]	IC50 [3] [µM]	melting point [°C]	IC50 at 24 h [4] [nM]	Type of Interaction [5, 10]	Type of Interaction [5, 11]	Type of Interaction [5, 12]	Type of Interaction [5, 13]	Type of Interaction [5, 14]	IC50 [6] [µM]	SI MRC-5/Colo 320 [6]	IC50 [7] [µM]	SI MRC-5/Colo 205 [7]	also measured
N#CC[Se]C(=O)c1ccc(F)c(Cl)c1 [N6, Se-(Cyanomethyl) 3-Chloro-4-fluorobenzoselenoate]	600	1.7	1.3	>6 *	9.6	73 to 75	> 100000	Antagonism	Antagonism	Antagonism	Antagonism	Antagonism	5.19	>6 *	2.24	>6 *	
N#CC[Se]C(=O)c1cccs1 [N1, Se-(Cyanomethyl) Thiophene-2-carboselenoate]	400	1.9	2	>6 *	11.3	50 to 52	> 100000						7.64	>6 *	2.37	>6 *	Interaction with doxorubicin ([5]; in at least one of the ratios tested): synergistic manner; also recorded: synergistic effect; Type of Interaction ([5]; ratio 1.7:1, starting conc. 15 µM): Antagonism; Type of Interaction ([5]; ratio 3.4:1, starting conc. 15 µM): Synergism; Type of Interaction ([5]; ratio 6.8:1, starting conc. 15 µM): Synergism; Type of Interaction ([5]; ratio 13.6:1, starting conc. 15 µM): Additive effect; Type of Interaction ([5]; ratio 27.2:1, starting conc. 15 µM): Synergism
N#CC[Se]C(=O)c1cccc(C(F)(F)F)c1 [N5, Se-(Cyanomethyl) 3-(Trifluoromethyl)benzoselenoate]	600	1.4	2.5	>6 *	9.8		> 100000	Strong antagonism	Slight antagonism	Additive effect	Slight antagonism	Moderate antagonism	5.22	>6 *	2.1	>6 *	SI MRC-5/HeLa [8]: >6 *; Type of Interaction ([5]; ratio 2.4:1, starting conc. 10 µM): Strong antagonism
NC(=O)NC1NC(=O)NC1=O (stereo not shown) [PC, Allantoin]																	Closure (%) 24 h ([9]; 24 h): 70.37%; Closure (%) 48 h ([9]; 48 h): 84.63%
